# Experimental data reported in patent US7781439B2, “Pyrazolopyrimidines” (Bayer CropScience AG, priority 2005, dated 2010).
# Marks after values point to notes of the source that are not given here.
# Assay: log P determination
# Assay type: physicochemical
# Settings: EEC Directive 79/831 Annex V. A8 by HPLC (gradient method, acetonitrile/0.1% aqueous phosphoric acid)
row,Structure (SMILES),log p
1,CC(C)C(C)Nc1c(-c2c(Cl)cc(OC(F)(F)F)cc2Cl)c(Cl)nc2c(C(=O)NS(C)(=O)=O)cnn12 (racemic) [compound 1198],4.85
2,CC(C)C(C)Nc1c(-c2ccc(F)cc2Cl)c(Cl)nc2c(C(=O)Nc3ccn(C)n3)cnn12 (stereo not drawn) [compound 1184],4.35

# Same assay, conditions: HPLC, gradient method, acetonitrile/0.1% aqueous phosphoric acid (EEC Directive 79/831 Annex V. A8)
row,Structure (SMILES),log p
1,CNC(=O)NC(=O)c1cnn2c(N[C@H](C)C(C)C)c(-c3ccc(F)cc3C)c(Cl)nc12 [Example 1178],4.42
2,Cc1cc(F)ccc1-c1c(Cl)nc2c(C(=O)Nc3ncccn3)cnn2c1NC(C)C(C)C (stereo not drawn) [compound 1179],6.61
3,CC(C)C(C)Nc1c(-c2ccc(F)cc2F)c(Cl)nc2c(C(=O)NN3CCOCC3)cnn12 (stereo not drawn) [compound 1180],3.46
4,Cc1ccc(-c2c(Cl)nc3c(C(=O)NN4CCOCC4)cnn3c2NC(C)C(C)(C)C)c(Cl)c1 (stereo not drawn) [compound 1181],4.41
5,CC(Nc1c(-c2ccc(F)cc2F)c(Cl)nc2c(C(=O)NN3CCOCC3)cnn12)C(C)(C)C (stereo not drawn) [compound 1182],3.76
6,Cc1ccsc1-c1c(Cl)nc2c(C(=O)NN3CCOCC3)cnn2c1NC(C)C(C)C (stereo not drawn) [compound 1183],3.63

# Same assay, conditions: intermediates of formula drawing 23, table
row,Structure (SMILES),log P
1,COC(=O)c1cnn2c(NC(C)C(C)C)c(-c3c(F)cc(F)cc3F)c(Cl)nc12 (stereo not drawn),4.05
2,COC(=O)c1cnn2c(NC(C)C(C)(C)C)c(-c3c(F)cc(F)cc3F)c(Cl)nc12 (stereo not drawn),4.93
3,"COC(=O)c1cnn2c(N3CCC(C)CC3)c(-c3c(F)cccc3Cl)c(Cl)nc12 [(CH2—CH2—CHCH3—CH2—CH2), 2-Cl-6-F-phenyl]",4.61
4,"COC(=O)c1cnn2c(NC(C)C(F)(F)F)c(-c3c(F)cc(F)cc3F)c(Cl)nc12 (stereo not drawn) [CH(CH3)(CF3), H, 2,4,6-trifluorophenyl]",3.53
5,"COC(=O)c1cnn2c(NC(C)C(F)(F)F)c(-c3ccc(F)cc3Cl)c(Cl)nc12 (stereo not drawn) [CH(CH3)(CF3), H, 2-Cl-4-F-phenyl]",3.75
6,"COC(=O)c1cnn2c(NC(C)C(C)(C)C)c(-c3ccc(F)cc3Cl)c(Cl)nc12 (stereo not drawn) [CH(CH3)—C(CH3)3, H, 2-Cl-4-F-phenyl]",4.68
7,"COC(=O)c1cnn2c(NC(C)C(C)(C)C)c(-c3c(F)cccc3Cl)c(Cl)nc12 (stereo not drawn) [CH(CH3)—C(CH3)3, H, 2-Cl-6-F-phenyl]",4.51
8,"COC(=O)c1cnn2c(NC(C)C(C)(C)C)c(-c3ccccc3Cl)c(Cl)nc12 (stereo not drawn) [CH(CH3)—C(CH3)3, H, 2-Cl-phenyl]",4.61
9,"COC(=O)c1cnn2c(NC(C)C(C)(C)C)c(-c3ncncc3F)c(Cl)nc12 (stereo not drawn) [CH(CH3)—C(CH3)3, H, 5-F-pyrimidin-4-yl]",3.15
10,"COC(=O)c1cnn2c(NC(C)C(C)C)c(-c3ccc(F)cc3Cl)c(Cl)nc12 (stereo not drawn) [CH(CH3)—CH(CH3)2, H, 2-Cl-4-F-phenyl]",4.31
11,"COC(=O)c1cnn2c(NC(C)C(C)C)c(-c3c(F)cccc3Cl)c(Cl)nc12 (stereo not drawn) [CH(CH3)—CH(CH3)2, H, 2-Cl-6-F-phenyl]",4.12
12,"COC(=O)c1cnn2c(NC(C)C(C)C)c(-c3ccccc3Cl)c(Cl)nc12 (stereo not drawn) [CH(CH3)—CH(CH3)2, H, 2-Cl-phenyl]",4.21

# Same assay, conditions: starting materials and intermediates, log P / log P*; read-out: log P
row,Structure (SMILES),log p
1,"CC(C)Nc1c(-c2ccc(Cl)cc2Cl)c(Cl)nc2c(C(=O)O)cnn12 [5-Chloro-6-(2,4-dichlorophenyl)-7-isopropylaminopyrazolo[1,5-a]pyrimidine-3-carboxylic acid]",3.3
2,"COC(=O)c1cnn2c(Cl)c(-c3ccc(Cl)cc3Cl)c(Cl)nc12 [Methyl 5,7-dichloro-6-(2,4-dichlorophenyl)pyrazolo[1,5-a]pyrimidine-3-carboxylate]",3.86
3,"COC(=O)c1cnn2c(NC(C)C)c(-c3ccc(Cl)cc3Cl)c(Cl)nc12 [Methyl 5-chloro-6-(2,4-dichlorophenyl)-7-isopropylaminopyrazolo[1,5-a]pyrimidine-3-carboxylate]",4.07
4,"COC(=O)c1cnn2c(O)c(-c3ccc(Cl)cc3Cl)c(O)nc12 [Methyl 6-(2,4-dichlorophenyl)-5,7-dihydroxypyrazolo[1,5-a]pyrimidine-3-carboxylate]",1.21

# Same assay, conditions: values marked **; EEC Directive 79/831 Annex V.A8, HPLC gradient method, acetonitrile/0.1% aqueous formic acid
row,Structure (SMILES),log p
1,Cc1cc(F)c(-c2c(Cl)nc3c(C(=O)NS(C)(=O)=O)cnn3c2N[C@H](C)C(C)(C)C)c(F)c1 [compound 51],4.38**
2,CC(Nc1c(-c2ccccc2)c(Cl)nc2c(C(=O)Nc3ccon3)cnn12)C(C)(C)C (stereo not drawn) [compound 71],4.88**
3,CC(C)[C@@H](C)Nc1c(-c2ccc(Cl)cc2Cl)c(Cl)nc2c(C(=O)NS(=O)(=O)C(F)(F)F)cnn12 [compound 206],3.87**
4,CCS(=O)(=O)NC(=O)c1cnn2c(N[C@H](C)C(C)C)c(-c3ccc(Cl)cc3Cl)c(Cl)nc12 [compound 208],4.88**
5,Cc1cc(F)c(-c2c(Cl)nc3c(C(=O)NS(C)(=O)=O)cnn3c2N[C@H](C)C(C)C)c(F)c1 [compound 219],4.08**

# Same assay, conditions: values marked *; HPLC, gradient method, acetonitrile/0.1% aqueous phosphoric acid, EEC Directive 79/831 Annex V. A8
Structure (SMILES),log p,chromatographic logP
CC(C)Nc1c(-c2ccc(F)cc2Cl)c(Cl)nc2c(C(=O)NS(C)(=O)=O)cnn12 [Example 351],3.57*,
CC(C)Nc1c(-c2ccccc2Cl)c(Cl)nc2c(C(=O)NS(C)(=O)=O)cnn12 [Example 357],3.44*,
CC(C)Nc1c(-c2c(F)cc(Cl)cc2F)c(Cl)nc2c(C(=O)NS(C)(=O)=O)cnn12 [Example 381],3.68*,
CC(C)CNc1c(-c2c(F)cc(F)cc2F)c(Cl)nc2c(C(=O)NS(C)(=O)=O)cnn12 [Example 429],3.59*,
CC(C)CNc1c(-c2ccc(F)cc2Cl)c(Cl)nc2c(C(=O)NS(C)(=O)=O)cnn12 [Example 435],3.82*,
CC(C)CNc1c(-c2ccccc2Cl)c(Cl)nc2c(C(=O)NS(C)(=O)=O)cnn12 [Example 441],3.78*,
CC(C)CNc1c(-c2ccc(Cl)cc2Cl)c(Cl)nc2c(C(=O)NS(C)(=O)=O)cnn12 [Example 459],4.26*,
CC(C)CNc1c(-c2c(F)cc(Cl)cc2F)c(Cl)nc2c(C(=O)NS(C)(=O)=O)cnn12 [Example 465],3.97*,
CC(C)(C)CNc1c(-c2c(F)cccc2Cl)c(Cl)nc2c(C(=O)NS(C)(=O)=O)cnn12 [Example 507],4.04*,
CC(C)(C)CNc1c(-c2c(F)cc(F)cc2F)c(Cl)nc2c(C(=O)NS(C)(=O)=O)cnn12 [Example 513],3.9*,
CC(C)(C)CNc1c(-c2ccc(F)cc2Cl)c(Cl)nc2c(C(=O)NS(C)(=O)=O)cnn12 [Example 519],4.19*,
CC(C)(C)CNc1c(-c2ccccc2Cl)c(Cl)nc2c(C(=O)NS(C)(=O)=O)cnn12 [Example 525],4.17*,
CC(C)(C)CNc1c(-c2ccc(Cl)cc2Cl)c(Cl)nc2c(C(=O)NS(C)(=O)=O)cnn12 [Example 543],4.63*,
CC(C)(C)CNc1c(-c2c(F)cc(Cl)cc2F)c(Cl)nc2c(C(=O)NS(C)(=O)=O)cnn12 [Example 549],4.31*,
CC(C)Nc1c(-c2ccc(Cl)cc2Cl)c(Cl)nc2c(C(=O)NS(C)(=O)=O)cnn12 [compound 375],,3.91

# Same assay, conditions: values marked *; no footnote carries the single asterisk; general footnote: HPLC gradient method, acetonitrile/0.1% aqueous phosphoric acid
row,Structure (SMILES),log p
1,C[C@@H](Nc1c(-c2c(F)cccc2Cl)c(Cl)nc2c(C(=O)NS(C)(=O)=O)cnn12)C(C)(C)C [Example 3],4.19*
2,C[C@@H](Nc1c(-c2ccccc2Cl)c(Cl)nc2c(C(=O)NS(C)(=O)=O)cnn12)C(C)(C)C [Example 21],4.36*
3,C[C@@H](Nc1c(-c2ccc(Cl)cc2Cl)c(Cl)nc2c(C(=O)NS(C)(=O)=O)cnn12)C(C)(C)C [Example 39],4.89*
4,C[C@@H](Nc1c(-c2c(F)cc(Cl)cc2F)c(Cl)nc2c(C(=O)NS(C)(=O)=O)cnn12)C(C)(C)C [Example 45],4.55*
5,CC(C)[C@@H](C)Nc1c(-c2c(F)cccc2Cl)c(Cl)nc2c(C(=O)NS(C)(=O)=O)cnn12 [Example 171],3.9*
6,CC(C)[C@@H](C)Nc1c(-c2ccccc2Cl)c(Cl)nc2c(C(=O)NS(C)(=O)=O)cnn12 [Example 189],4.01*
7,CC(C)[C@@H](C)Nc1c(-c2c(F)cc(F)cc2Cl)c(Cl)nc2c(C(=O)NS(C)(=O)=O)cnn12 [Example 201],4.05*
8,CC(C)[C@@H](C)Nc1c(-c2ccc(Cl)cc2Cl)c(Cl)nc2c(C(=O)NS(C)(=O)=O)cnn12 [Example 207],4.55*
9,CC(C)[C@@H](C)Nc1c(-c2c(F)cc(Cl)cc2F)c(Cl)nc2c(C(=O)NS(C)(=O)=O)cnn12 [Example 213],4.24*
10,CC1CCN(c2c(-c3c(F)cccc3Cl)c(Cl)nc3c(C(=O)NS(C)(=O)=O)cnn23)CC1 [Example 255],4.2*
11,CC1CCN(c2c(-c3c(F)cc(F)cc3F)c(Cl)nc3c(C(=O)NS(C)(=O)=O)cnn23)CC1 [Example 261],4.07*
12,CC1CCN(c2c(-c3c(F)cc(F)cc3Cl)c(Cl)nc3c(C(=O)NS(C)(=O)=O)cnn23)CC1 [Example 285],4.34*

# Same assay, conditions: values printed without asterisk; EEC Directive 79/831 Annex V. A8, HPLC gradient method, acetonitrile/0.1% aqueous phosphoric acid (general footnote)
row,Structure (SMILES),log p
1,C[C@@H](Nc1c(-c2c(F)cc(F)cc2F)c(Cl)nc2c(C(=O)NS(C)(=O)=O)cnn12)C(C)(C)C [Example 9],4.16
2,C[C@@H](Nc1c(-c2ccc(F)cc2Cl)c(Cl)nc2c(C(=O)NS(=O)(=O)C(F)(F)F)cnn12)C(C)(C)C [Example 14],3.77
3,C[C@@H](Nc1c(-c2ccc(F)cc2Cl)c(Cl)nc2c(C(=O)NS(C)(=O)=O)cnn12)C(C)(C)C [Example 15],4.44
4,C[C@@H](Nc1c(-c2c(F)cc(F)cc2Cl)c(Cl)nc2c(C(=O)NS(C)(=O)=O)cnn12)C(C)(C)C [Example 33],4.38
5,C[C@@H](Nc1c(-c2ccc(Cl)cc2Cl)c(Cl)nc2c(C(=O)NS(=O)(=O)C(F)(F)F)cnn12)C(C)(C)C [Example 38],3.93
6,C[C@H](Nc1c(-c2ccc(Cl)cc2Cl)c(Cl)nc2c(C(=O)NS(C)(=O)=O)cnn12)C(F)(F)F [Example 123],3.99
7,CC(C)[C@@H](C)Nc1c(-c2ccc(F)cc2Cl)c(Cl)nc2c(C(=O)NS(C)(=O)=O)cnn12 [Example 183],4.18
